Patent US8729089B2 (Gilead Sciences, Inc., priority 2006, dated 2014)

How the values were obtained:
[1] = CC50 assay (CellTiter-Glo) in Huh-7 HCV replicon cells; format: cell-based, human; conditions: human, 3 days incubation, CellTiter-Glo readout
Outline: (§1)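 Huh-7 cells carrying an HCV replicon (6000/well) exposed to 3-fold serial compound dilutions for 3 days at 37 °C, final DMSO 0.5% where used. EC50 read as replicon luciferase luminescence after cell lysis; CC50 from CellTiter-Glo luminescence after 10 min at room temperature.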

[2] = test system: HCV replicon in human hepatoma Huh-7 cell line; assay: Anti-HCV replicon assay (EC50, luciferase); format: cell-based; conditions: Hepatitis C virus, Huh-7, 72 h
Outline: as §1

SMILES | CC50 at 3 days [1] | EC50 [2]
Nc1cnc(-c2ccc3nc(NCc4ccc(S(N)(=O)=O)cc4)nc(NCC(F)(F)F)c3n2)cn1 [Example 187, 4-{[6-(5-Amino-pyrazin-2-yl)-4-(2,2,2-trifluoro-ethylamino)-pyrido[3,2-d]pyrimidin-2-ylamino]-methyl}-benzenesulfonamide] | > 25 µM | < 0.1 µM
Nc1ncc(-c2ccc3nc(NCc4ccc(S(N)(=O)=O)cc4)nc(NCC(F)(F)F)c3n2)s1 [Example 188, 4-{[6-(2-Amino-thiazol-5-yl)-4-(2,2,2-trifluoro-ethylamino)-pyrido[3,2-d]pyrimidin-2-ylamino]-methyl}-benzenesulfonamide] | 5 to 25 µM | < 0.1 µM
NS(=O)(=O)c1ccc(CNc2nc(NCC(F)(F)F)c3nc(-c4cn[nH]c4)ccc3n2)cc1 [Example 189, 4-{[6-(1H-Pyrazol-4-yl)-4-(2,2,2-trifluoro-ethylamino)-pyrido[3,2-d]pyrimidin-2-ylamino]-methyl}-benzenesulfonamide] | 5 to 25 µM | < 0.1 µM
NS(=O)(=O)c1ccc(CNc2nc(NCC(F)(F)F)c3nc(-c4ccc(F)nc4)ccc3n2)cc1 [Example 190, 4-{[6-(6-Fluoro-pyridin-3-yl)-4-(2,2,2-trifluoro-ethylamino)-pyrido[3,2-d]pyrimidin-2-ylamino]-methyl}-benzenesulfonamide] | < 5 µM | < 0.1 µM
NS(=O)(=O)c1ccc(CNc2nc(NCC(F)(F)F)c3nc(-c4ccc(N5CCCC5=O)cc4)ccc3n2)cc1 [Example 191, 4-{[6-[4-(2-Oxo-pyrrolidin-1-yl)-phenyl]-4-(2,2,2-trifluoro-ethylamino)-pyrido[3,2-d]pyrimidin-2-ylamino]-methyl}-benzenesulfonamide] | < 5 µM | < 0.1 µM
NS(=O)(=O)c1ccc(CNc2nc(NCC(F)(F)F)c3nc(-c4ccc(Cl)cc4)ccc3n2)cc1 [Example 192, 4-{[6-(4-Chloro-phenyl)-4-(2,2,2-trifluoro-ethylamino)-pyrido[3,2-d]pyrimidin-2-ylamino]-methyl}-benzenesulfonamide] | 5 to 25 µM | < 0.1 µM
CC(C)N1CCC(NS(=O)(=O)c2cc(-c3ccc4nc(NCc5ccc(S(N)(=O)=O)cc5)nc(NCC(F)(F)F)c4n3)ccc2Cl)CC1 [Example 193, 2-Chloro-N-(1-isopropyl-piperidin-4-yl)-5-[2-(4-sulfamoyl-benzylamino)-4-(2,2,2-trifluoro-ethylamino)-pyrido[3,2-d]pyrimidin-6-yl]-benzenesulfonamide] | < 5 µM | < 0.1 µM
CC(C)(C)OC(=O)NC1CCN(S(=O)(=O)c2cc(-c3ccc4nc(NCc5ccc(S(N)(=O)=O)cc5)nc(NCC(F)(F)F)c4n3)ccc2Cl)CC1 [Example 194, (1-{2-Chloro-5-[2-(4-sulfamoyl-benzylamino)-4-(2,2,2-trifluoro-ethylamino)-pyrido[3,2-d]pyrimidin-6-yl]-benzenesulfonyl}-piperidin-4-yl)-carbamic acid tert-butyl ester] | < 5 µM | < 0.1 µM
NS(=O)(=O)c1ccc(CNc2nc(NCC(F)(F)F)c3nc(-c4ccc(Cl)c(S(=O)(=O)NCCN5CCCC5)c4)ccc3n2)cc1 [Example 195, 2-Chloro-N-(2-pyrrolidin-1-yl-ethyl)-5-[2-(4-sulfamoyl-benzylamino)-4-(2,2,2-trifluoro-ethylamino)-pyrido[3,2-d]pyrimidin-6-yl]-benzenesulfonamide] | < 5 µM | < 0.1 µM
CC(C)N1CCN(S(=O)(=O)c2cc(-c3ccc4nc(NCc5ccc(S(N)(=O)=O)cc5)nc(NCC(F)(F)F)c4n3)ccc2Cl)CC1 [Example 196, 4-{[6-[4-Chloro-3-(4-isopropyl-piperazine-1-sulfonyl)-phenyl]-4-(2,2,2-trifluoro-ethylamino)-pyrido[3,2-d]pyrimidin-2-ylamino]-methyl}-benzenesulfonamide] | < 5 µM | < 0.1 µM
NS(=O)(=O)c1ccc(CNc2nc(NCC(F)(F)F)c3nc(-c4ccc(Cl)c(S(=O)(=O)N[C@@H]5CCNC5)c4)ccc3n2)cc1 [Example 197, 2-Chloro-N-pyrrolidin-3-yl-5-[2-(4-sulfamoyl-benzylamino)-4-(2,2,2-trifluoro-ethylamino)-pyrido[3,2-d]pyrimidin-6-yl]-benzenesulfonamide] | < 5 µM | < 0.1 µM
COCCNS(=O)(=O)c1cc(-c2ccc3nc(NCc4ccc(S(N)(=O)=O)cc4)nc(NCC(F)(F)F)c3n2)ccc1Cl [Example 198, 2-Chloro-N-(2-methoxy-ethyl)-5-[2-(4-sulfamoyl-benzylamino)-4-(2,2,2-trifluoro-ethylamino)-pyrido[3,2-d]pyrimidin-6-yl]-benzenesulfonamide] | 5 to 25 µM | < 0.1 µM
CC(C)(CN1CCCC1)NC(=O)c1ccc(-c2ccc3nc(NCc4ccc(S(N)(=O)=O)cc4)nc(NCC(F)(F)F)c3n2)cc1 [Example 199, N-(1,1-Dimethyl-2-pyrrolidin-1-yl-ethyl)-4-[2-(4-sulfamoyl-benzylamino)-4-(2,2,2-trifluoro-ethylamino)-pyrido[3,2-d]pyrimidin-6-yl]-benzamide] | < 5 µM | < 0.1 µM
NS(=O)(=O)c1ccc(CNc2nc(NCC(F)(F)F)c3nc(-c4ccc(Cl)c(S(=O)(=O)NC5CCNCC5)c4)ccc3n2)cc1 [Example 200, 2-Chloro-N-piperidin-4-yl-5-[2-(4-sulfamoyl-benzylamino)-4-(2,2,2-trifluoro-ethylamino)-pyrido[3,2-d]pyrimidin-6-yl]-benzenesulfonamide] | < 5 µM | < 0.1 µM
CC(C)(C)OC(=O)N1CCC(NS(=O)(=O)c2cc(-c3ccc4nc(NCc5ccc(S(N)(=O)=O)cc5)nc(NCC(F)(F)F)c4n3)ccc2Cl)CC1 [Example 201, 4-{2-Chloro-5-[2-(4-sulfamoyl-benzylamino)-4-(2,2,2-trifluoro-ethylamino)-pyrido[3,2-d]pyrimidin-6-yl]-benzenesulfonylamino}-piperidine-1-carboxylic acid tert-butyl ester] | 5 to 25 µM | < 0.1 µM
NS(=O)(=O)c1ccc(CNc2nc(NCC(F)(F)F)c3nc(-c4ccc(Cl)c(S(N)(=O)=O)c4)ccc3n2)cc1 [Example 202, 2-Chloro-5-[2-(4-sulfamoyl-benzylamino)-4-(2,2,2-trifluoro-ethylamino)-pyrido[3,2-d]pyrimidin-6-yl]-benzenesulfonamide] | < 5 µM | < 0.1 µM
NS(=O)(=O)c1ccc(CNc2nc(NCC(F)(F)F)c3nc(-c4ccnnc4)ccc3n2)cc1 [Example 203, 4-{[6-Pyridazin-4-yl-4-(2,2,2-trifluoro-ethylamino)-pyrido[3,2-d]pyrimidin-2-ylamino]-methyl}-benzenesulfonamide] | > 25 µM | < 0.1 µM
CC(C)N1CCN(S(=O)(=O)c2cc(-c3ccc4nc(NCc5ccc(S(N)(=O)=O)cc5)nc(NCC(F)(F)F)c4n3)ccc2F)CC1 [Example 204, 4-{[6-[4-Fluoro-3-(4-isopropyl-piperazine-1-sulfonyl)-phenyl]-4-(2,2,2-trifluoro-ethylamino)-pyrido[3,2-d]pyrimidin-2-ylamino]-methyl}-benzenesulfonamide] | < 5 µM | < 0.1 µM
CC(C)(C)OC(=O)N1CC[C@@H](NS(=O)(=O)c2cc(-c3ccc4nc(NCc5ccc(S(N)(=O)=O)cc5)nc(NCC(F)(F)F)c4n3)ccc2F)C1 [Example 205, 3-{2-Fluoro-5-[2-(4-sulfamoyl-benzylamino)-4-(2,2,2-trifluoro-ethylamino)-pyrido[3,2-d]pyrimidin-6-yl]-benzenesulfonylamino}-pyrrolidine-1-carboxylic acid tert-butyl ester] | < 5 µM | < 0.1 µM
CN(CC(F)(F)F)c1nc(NCc2ccc(S(N)(=O)=O)cc2)nc2ccc(-c3ccc(F)cc3)nc12 [Example 206, 4-({6-(4-Fluoro-phenyl)-4-[methyl-(2,2,2-trifluoro-ethyl)-amino]-pyrido[3,2-d]pyrimidin-2-ylamino}-methyl)-benzenesulfonamide] | < 5 µM | < 0.1 µM
C[C@H](N)C(=O)Nc1ccc(-c2ccc3nc(NCc4ccc(S(N)(=O)=O)cc4)nc(NCC(F)(F)F)c3n2)cc1Cl [Example 207, 2-Amino-N-{2-chloro-4-[2-(4-sulfamoyl-benzylamino)-4-(2,2,2-trifluoro-ethylamino)-pyrido[3,2-d]pyrimidin-6-yl]-phenyl}-propionamide] | < 5 µM | < 0.1 µM
C[C@H](O)C(=O)Nc1ccc(-c2ccc3nc(NCc4ccc(S(N)(=O)=O)cc4)nc(NCC(F)(F)F)c3n2)cc1Cl [Example 208, N-{2-Chloro-4-[2-(4-sulfamoyl-benzylamino)-4-(2,2,2-trifluoro-ethylamino)-pyrido[3,2-d]pyrimidin-6-yl]-phenyl}-2-hydroxy-propionamide] | 5 to 25 µM | < 0.1 µM
C[C@H](O)C(=O)Nc1ccc(-c2ccc3nc(NCc4ccc(S(N)(=O)=O)cc4)nc(NCC(F)(F)F)c3n2)cc1F [Example 209, N-{2-Fluoro-4-[2-(4-sulfamoyl-benzylamino)-4-(2,2,2-trifluoro-ethylamino)-pyrido[3,2-d]pyrimidin-6-yl]-phenyl}-2-hydroxy-propionamide] | < 5 µM | < 0.1 µM
C[C@H](O)C(=O)Nc1ccc(-c2ccc3nc(NCc4ccc(S(N)(=O)=O)cc4)nc(NCC(F)(F)F)c3n2)cc1 [Example 210, 2-Hydroxy-N-{4-[2-(4-sulfamoyl-benzylamino)-4-(2,2,2-trifluoro-ethylamino)-pyrido[3,2-d]pyrimidin-6-yl]-phenyl}-propionamide] | > 25 µM | < 0.1 µM
COC(=O)Nc1ccc(-c2ccc3nc(NCc4ccc(S(N)(=O)=O)cc4)nc(NCC(F)(F)F)c3n2)cc1 [Example 211, {4-[2-(4-Sulfamoyl-benzylamino)-4-(2,2,2-trifluoro-ethylamino)-pyrido[3,2-d]pyrimidin-6-yl]-phenyl}-carbamic acid methyl ester] | 5 to 25 µM | < 0.1 µM
